Measurements from ChEMBL document CHEMBL1152152, “Quantitative structure-activity relationship of phenoxyphenyl-methanamine compounds with 5HT2A, SERT, and hERG activities” (Bioorg Med Chem Lett, 2008).

How the values were obtained:
[1] = biological target: Sodium-dependent serotonin transporter (Homo sapiens, UniProt P31645); experiment: Inhibition of serotonin reuptake at SERT
[2] = biological target: 5-hydroxytryptamine receptor 2A (Homo sapiens, UniProt P28223); experiment: Displacement of [3H]ketanserin from 5HT2A receptor
5-hydroxytryptamine receptor 2A, sequence (P28223 whole entry): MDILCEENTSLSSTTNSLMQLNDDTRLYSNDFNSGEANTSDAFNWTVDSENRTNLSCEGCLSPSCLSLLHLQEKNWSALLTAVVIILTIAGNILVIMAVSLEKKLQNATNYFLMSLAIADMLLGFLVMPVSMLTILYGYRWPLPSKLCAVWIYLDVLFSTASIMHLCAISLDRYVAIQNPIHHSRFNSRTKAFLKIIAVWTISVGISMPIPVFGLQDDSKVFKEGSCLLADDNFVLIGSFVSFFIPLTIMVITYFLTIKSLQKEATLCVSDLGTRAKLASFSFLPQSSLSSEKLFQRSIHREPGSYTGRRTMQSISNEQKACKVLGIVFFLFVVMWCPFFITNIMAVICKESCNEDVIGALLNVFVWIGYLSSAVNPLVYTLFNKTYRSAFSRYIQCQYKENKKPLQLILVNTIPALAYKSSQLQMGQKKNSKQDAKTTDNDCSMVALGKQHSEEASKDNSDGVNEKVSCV

[3] = biological target: Voltage-gated inwardly rectifying potassium channel KCNH2 (Homo sapiens, UniProt Q12809); experiment: Displacement of [3H]dofetilide from human ERG channel
Voltage-gated inwardly rectifying potassium channel KCNH2, sequence (Q12809 whole entry): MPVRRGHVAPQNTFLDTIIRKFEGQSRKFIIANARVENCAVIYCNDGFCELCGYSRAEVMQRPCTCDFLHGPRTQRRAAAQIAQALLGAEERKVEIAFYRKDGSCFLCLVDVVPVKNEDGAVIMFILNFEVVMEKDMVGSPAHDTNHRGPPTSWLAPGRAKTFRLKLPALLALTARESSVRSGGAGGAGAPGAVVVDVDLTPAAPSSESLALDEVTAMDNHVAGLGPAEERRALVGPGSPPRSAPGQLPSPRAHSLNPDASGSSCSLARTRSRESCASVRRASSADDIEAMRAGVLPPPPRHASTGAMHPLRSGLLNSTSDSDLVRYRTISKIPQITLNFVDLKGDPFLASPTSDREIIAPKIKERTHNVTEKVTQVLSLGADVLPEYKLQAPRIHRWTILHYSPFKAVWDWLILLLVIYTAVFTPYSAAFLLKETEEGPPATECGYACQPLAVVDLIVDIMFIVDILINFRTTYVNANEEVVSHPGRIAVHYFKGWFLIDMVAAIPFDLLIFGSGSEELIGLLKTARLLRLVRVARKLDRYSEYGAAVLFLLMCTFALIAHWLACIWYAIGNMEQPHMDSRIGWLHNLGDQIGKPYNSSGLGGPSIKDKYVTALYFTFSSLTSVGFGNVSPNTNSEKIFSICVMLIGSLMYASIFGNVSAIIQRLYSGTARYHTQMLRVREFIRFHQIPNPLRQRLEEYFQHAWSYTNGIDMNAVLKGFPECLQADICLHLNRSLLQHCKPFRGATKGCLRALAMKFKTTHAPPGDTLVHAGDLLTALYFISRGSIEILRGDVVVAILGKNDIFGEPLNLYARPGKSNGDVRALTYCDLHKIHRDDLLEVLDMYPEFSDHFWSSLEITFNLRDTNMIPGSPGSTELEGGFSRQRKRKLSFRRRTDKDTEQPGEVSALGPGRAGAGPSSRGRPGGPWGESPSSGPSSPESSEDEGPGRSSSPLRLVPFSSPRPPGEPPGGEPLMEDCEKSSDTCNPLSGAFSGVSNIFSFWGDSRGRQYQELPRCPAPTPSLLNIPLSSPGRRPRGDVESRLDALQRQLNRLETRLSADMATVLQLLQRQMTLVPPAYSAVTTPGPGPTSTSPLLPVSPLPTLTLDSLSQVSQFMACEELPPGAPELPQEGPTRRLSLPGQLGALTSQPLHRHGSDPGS

Sodium-dependent serotonin transporter, sequence (P31645 whole entry): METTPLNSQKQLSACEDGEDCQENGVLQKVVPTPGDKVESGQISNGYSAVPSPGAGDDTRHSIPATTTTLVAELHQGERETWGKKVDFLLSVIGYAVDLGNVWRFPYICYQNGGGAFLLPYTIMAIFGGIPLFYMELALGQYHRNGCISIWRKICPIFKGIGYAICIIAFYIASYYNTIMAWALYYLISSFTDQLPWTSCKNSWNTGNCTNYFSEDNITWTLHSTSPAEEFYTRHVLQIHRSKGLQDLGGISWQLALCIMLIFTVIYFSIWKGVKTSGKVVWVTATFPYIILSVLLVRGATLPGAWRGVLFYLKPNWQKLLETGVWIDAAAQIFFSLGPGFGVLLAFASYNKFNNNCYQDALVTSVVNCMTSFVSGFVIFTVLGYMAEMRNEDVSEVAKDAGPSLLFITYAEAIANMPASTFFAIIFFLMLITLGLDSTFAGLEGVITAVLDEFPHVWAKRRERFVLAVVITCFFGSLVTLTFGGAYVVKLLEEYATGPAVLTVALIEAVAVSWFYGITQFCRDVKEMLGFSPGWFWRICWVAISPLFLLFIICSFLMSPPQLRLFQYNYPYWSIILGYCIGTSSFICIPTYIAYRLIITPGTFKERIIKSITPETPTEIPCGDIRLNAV

Compound `CN(C)Cc1ccccc1Oc1ccc(Cl)cc1` has an IC50 [1] of 1.68 nM and an IC50 [2] of 1980 nM.
Compound `CNCc1cc(F)ccc1Oc1ccc(F)c(Cl)c1` has an IC50 [1] of 37.5 nM and an IC50 [2] of 575 nM.
For `CN(C)Cc1ccccc1Oc1ccc(Cl)c(Cl)c1`, the IC50 [1] was 0.35 nM and the IC50 [2] was 144 nM.
`CNC(C)c1cc(F)ccc1Oc1ccc(Cl)cc1` (configuration not stated) was tested, and the IC50 [1] was 34.8 nM and the IC50 [2] was 206 nM.
Work on `CNCc1ccc(Cl)cc1Oc1ccc(Cl)c(F)c1` yielded an IC50 [1] of 88 nM, an IC50 [2] of 58.1 nM and an IC50 [3] of 1230 nM.
Work on `CN(C)Cc1ccccc1Oc1ccc(F)c(F)c1` yielded an IC50 [1] of 34.4 nM and an IC50 [2] of 1000 nM.
Work on `CNCc1ccc(Cl)cc1Oc1ccc(C)cc1` yielded an IC50 [1] of 17 nM and an IC50 [2] of 1.18 nM.
`CNCc1cc(F)ccc1Oc1ccc(Cl)c(F)c1` was tested, and the IC50 [1] was 19.3 nM and the IC50 [2] was 2010 nM.
For `CNCc1ccc(Cl)cc1Oc1cccc(Cl)c1`, the IC50 [1] was 77.5 nM, the IC50 [2] was 48.6 nM and the IC50 [3] was 2110 nM.
In the case of `CCc1cc(Oc2cc(Cl)ccc2CNC)ccc1Cl`, the IC50 [1] is reported as 20.7 nM, the IC50 [2] is reported as 47.1 nM and the IC50 [3] is reported as 1150 nM.
Work on `CSc1ccc(Oc2ccccc2CN(C)C)cc1` yielded an IC50 [1] of 1 nM, an IC50 [2] of 458 nM and an IC50 [3] of 3020 nM.
For `CNCc1cc(C#N)ccc1Oc1ccc(Cl)c(Cl)c1`, the IC50 [1] was 2.5 nM, the IC50 [2] was 3180 nM and the IC50 [3] was 4560 nM.
Work on `CNCc1ccc(Br)cc1Oc1ccc(Cl)c(Cl)c1` yielded an IC50 [1] of 5.1 nM and an IC50 [2] of 66.8 nM.
For `CN(C)Cc1cc(CC(N)=O)ccc1Oc1ccc(Cl)c(Cl)c1`, the IC50 [1] was 2.43 nM and the IC50 [2] was 2240 nM.
Work on `CNCc1ccc(Cl)cc1Oc1ccc(C)c(Cl)c1` yielded an IC50 [1] of 4.19 nM and an IC50 [2] of 9.11 nM.
`CNCc1ccc(Cl)cc1Oc1ccc(Cl)c(C)c1` was tested, and the IC50 [1] was 4.27 nM and the IC50 [2] was 9.04 nM.
`CNC(C)c1cc(C(F)(F)F)ccc1Oc1ccc(Cl)c(Cl)c1` (configuration not stated) gave an IC50 [1] of 61.2 nM, an IC50 [2] of 291 nM and an IC50 [3] of 3030 nM.
Compound `CNC(C)c1cc(C)ccc1Oc1ccc(Cl)c(Cl)c1` (configuration not stated) has an IC50 [1] of 39.6 nM and an IC50 [2] of 172 nM.
Work on `CNCc1ccc(Cl)cc1Oc1ccc(F)c(Cl)c1` yielded an IC50 [1] of 25.4 nM and an IC50 [2] of 60.9 nM.
Compound `CNCc1ccc(Cl)cc1Oc1ccc(F)c(C(F)(F)F)c1` has an IC50 [1] of 9.71 nM, an IC50 [2] of 48.9 nM and an IC50 [3] of 873 nM.
`Cc1ccc(Oc2ccccc2CN(C)C)cc1` was tested, and the IC50 [1] was 3.46 nM and the IC50 [2] was 74.2 nM.
For `CNCc1cc(F)ccc1Oc1ccc(-c2ccccc2)cc1`, the IC50 [1] was 28.9 nM and the IC50 [2] was 378 nM.
Work on `CNCc1cc(F)c(OC)cc1Oc1ccc(Cl)c(Cl)c1` yielded an IC50 [1] of 4.51 nM and an IC50 [2] of 74.6 nM.
`CNCc1ccc(Cl)cc1Oc1ccc(F)c(C)c1` was tested, and the IC50 [1] was 31.2 nM and the IC50 [2] was 32.9 nM.
With `COc1ccc(CN(C)C)c(Oc2ccc(Cl)c(Cl)c2)c1` the IC50 [1] was 3.61 nM and the IC50 [2] was 36.8 nM.
`CNCc1cc(S(=O)(=O)NC)ccc1Oc1ccc(Cl)c(Cl)c1` gave an IC50 [1] of 9.35 nM, an IC50 [2] of 5570 nM and an IC50 [3] of 4800 nM.
`CNCc1cc(C)c(C)cc1Oc1ccc(Cl)c(Cl)c1` gave an IC50 [1] of 8.9 nM, an IC50 [2] of 79.4 nM and an IC50 [3] of 1480 nM.
`CNCc1cc(C(N)=O)ccc1Oc1ccc(Cl)c(Cl)c1` gave an IC50 [1] of 3.78 nM, an IC50 [2] of 1550 nM and an IC50 [3] of 5440 nM.
Compound `Cc1ccc(Oc2ccc(Cl)c(Cl)c2)c(CN(C)C)c1` has an IC50 [1] of 2.36 nM, an IC50 [2] of 376 nM and an IC50 [3] of 3390 nM.
With `CNCc1cc(F)c(Cl)cc1Oc1ccc(Cl)c(Cl)c1` the IC50 [1] was 4.37 nM and the IC50 [2] was 230 nM.
`CNC(C)c1ccc(Cl)cc1Oc1ccc(C)cc1` (configuration not stated) was tested, and the IC50 [1] was 187 nM, the IC50 [2] was 3.54 nM and the IC50 [3] was 3690 nM.
`CNCc1cc(Cl)ccc1Oc1ccc(C)c(C)c1` showed an IC50 [1] of 9.81 nM and an IC50 [2] of 51 nM.
For `CNCc1cc(Cl)ccc1Oc1ccc(Cl)cc1`, the IC50 [1] was 7.49 nM and the IC50 [2] was 90.2 nM.
`CNCc1ccc(Cl)cc1Oc1ccc(Cl)cc1` gave an IC50 [1] of 9.2 nM and an IC50 [2] of 6.59 nM.
With `CNCc1cc(C(F)(F)F)ccc1Oc1ccc(C)cc1` the IC50 [1] was 74.7 nM, the IC50 [2] was 34.7 nM and the IC50 [3] was 10400 nM.
`CNCc1cc(F)ccc1Oc1ccccc1` was tested, and the IC50 [1] was 381 nM and the IC50 [2] was 670 nM.
Work on `CNCc1ccc(Cl)cc1Oc1ccc(C)c(C)c1` yielded an IC50 [1] of 4.67 nM and an IC50 [2] of 3.42 nM.
`CC(c1ccccc1Oc1ccc(Cl)c(Cl)c1)N(C)C` (configuration not stated) gave an IC50 [1] of 3.27 nM and an IC50 [2] of 87.8 nM.
Compound `CNCc1cc(OC)c(OC)cc1Oc1ccc(Cl)c(Cl)c1` has an IC50 [1] of 14.1 nM and an IC50 [2] of 249 nM.
Work on `CNC(C)c1ccccc1Oc1ccc(Cl)c(Cl)c1` (configuration not stated) yielded an IC50 [1] of 23 nM and an IC50 [2] of 379 nM.
Work on `CNC(C)c1ccccc1Oc1ccc(Cl)cc1` (configuration not stated) yielded an IC50 [1] of 56.8 nM and an IC50 [2] of 179 nM.
`CNCc1ccc(F)cc1Oc1ccc(Cl)c(Cl)c1` showed an IC50 [1] of 36 nM and an IC50 [2] of 651 nM.
For `CNCc1cc(F)ccc1Oc1ccc(C)c(C)c1`, the IC50 [1] was 7.55 nM and the IC50 [2] was 52.4 nM.
For `CNCc1cc(F)ccc1Oc1ccc(Cl)c(Cl)c1`, the IC50 [1] was 3.28 nM and the IC50 [2] was 206 nM.
Work on `CN(C)Cc1ccc(C(F)(F)F)cc1Oc1ccc(Cl)c(Cl)c1` yielded an IC50 [1] of 17.1 nM and an IC50 [2] of 41.5 nM.
With `CNCc1ccccc1Oc1ccc(C)c(C)c1` the IC50 [1] was 12.8 nM and the IC50 [2] was 66.4 nM.
Work on `CNCc1ccccc1Oc1ccc(Cl)cc1` yielded an IC50 [1] of 13.9 nM and an IC50 [2] of 1050 nM.
In the case of `CNCc1ccc(C(F)(F)F)cc1Oc1ccc(Cl)c(Cl)c1`, the IC50 [1] is reported as 29.6 nM and the IC50 [2] is reported as 362 nM.
In the case of `CNCc1ccc(Cl)cc1Oc1ccc(Cl)c(Cl)c1`, the IC50 [1] is reported as 6.22 nM and the IC50 [2] is reported as 89.5 nM.
With `CNCc1cc(F)ccc1Oc1ccc(Cl)cc1` the IC50 [1] was 9.47 nM and the IC50 [2] was 495 nM.
In the case of `CNCc1cc(Br)ccc1Oc1ccc(Cl)c(Cl)c1`, the IC50 [1] is reported as 4.8 nM and the IC50 [2] is reported as 787 nM.
`CNC(C)c1cc(F)ccc1Oc1ccc(Cl)c(Cl)c1` (configuration not stated) was tested, and the IC50 [1] was 8.09 nM and the IC50 [2] was 301 nM.
In the case of `CN(C)Cc1cc(N)ccc1Oc1ccc(Cl)c(Cl)c1`, the IC50 [1] is reported as 4.99 nM and the IC50 [2] is reported as 724 nM.
`CNCc1ccccc1Oc1ccc(Cl)c(Cl)c1` was tested, and the IC50 [1] was 4.02 nM and the IC50 [2] was 721 nM.
`CNCc1ccc(OC)cc1Oc1ccc(Cl)c(Cl)c1` gave an IC50 [1] of 8.72 nM and an IC50 [2] of 105 nM.
In the case of `CNCc1cc(Cl)ccc1Oc1ccc(Cl)c(Cl)c1`, the IC50 [1] is reported as 5.73 nM and the IC50 [2] is reported as 429 nM.
For `CNCc1ccc(C(F)(F)F)cc1Oc1ccc(Cl)cc1`, the IC50 [1] was 31.1 nM, the IC50 [2] was 324 nM and the IC50 [3] was 5110 nM.
In the case of `CCc1cc(Oc2ccc(F)cc2CNC)ccc1Cl`, the IC50 [1] is reported as 5.53 nM and the IC50 [2] is reported as 274 nM.
`CNCc1cc(C(F)(F)F)ccc1Oc1ccc(Cl)c(Cl)c1` gave an IC50 [1] of 21.8 nM and an IC50 [2] of 1800 nM.
`CNC(C)c1ccccc1Oc1ccc(C)cc1` (configuration not stated) showed an IC50 [1] of 94.1 nM and an IC50 [2] of 55.1 nM.
In the case of `CNCc1ccc(C#N)cc1Oc1ccc(Cl)c(Cl)c1`, the IC50 [2] is reported as 315 nM and the IC50 [3] is reported as 1310 nM.
In the case of `CNC(C)c1ccc(Cl)cc1Oc1ccc(C)c(C)c1` (configuration not stated), the IC50 [1] is reported as 115 nM and the IC50 [2] is reported as 6.82 nM.
`CNC(C)c1ccc(OC)cc1Oc1ccc(Cl)c(Cl)c1` (configuration not stated) was tested, and the IC50 [1] was 41.2 nM and the IC50 [2] was 88 nM.
`CNCc1cc(OC)ccc1Oc1ccc(Cl)c(Cl)c1` showed an IC50 [1] of 3.77 nM and an IC50 [2] of 1450 nM.
